Measured values published in PubChem BioAssay (NCI).
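Protocol summary: plate cells (96-well), add compound at 5 concentrations, incubate 48 h, interpolate endpoints linearly. Definition used: TGI = concentration required for complete inhibition of growth.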

Experiments:
Assay in all cases: inhibition of tumour cell growth, NCI panel, 48 h
BT-549 breast = system: BT-549 breast
MDA-MB-231 breast = system: MDA-MB-231 breast
EKVX NSCLC = system: EKVX NSCLC
NCI-H226 lung = system: NCI-H226 lung
MDA-MB-435 = system: MDA-MB-435
CCRF-CEM leukemia = system: CCRF-CEM leukemia
HOP-92 NSCLC = system: HOP-92 NSCLC
UACC-257 melanoma = system: UACC-257 melanoma
HCC-2998 colon = system: HCC-2998 colon
SK-MEL-2 melanoma = system: SK-MEL-2 melanoma
CAKI-1 renal = system: CAKI-1 renal
NCI-H522 lung = system: NCI-H522 lung
PC-3 prostate = system: PC-3 prostate
TK-10 renal = system: TK-10 renal
NCI-H460 lung = system: NCI-H460 lung
RXF 393 renal = system: RXF 393 renal
MOLT-4 leukemia = system: MOLT-4 leukemia
SF-539 CNS = system: SF-539 CNS
SN12C renal = system: SN12C renal
HOP-62 NSCLC = system: HOP-62 NSCLC
RPMI-8226 leukemia = system: RPMI-8226 leukemia
SW-620 colon = system: SW-620 colon
HS 578T breast = system: HS 578T breast
SK-OV-3 ovarian = system: SK-OV-3 ovarian
SF-268 CNS = system: SF-268 CNS
U251 CNS = system: U251 CNS
ACHN renal = system: ACHN renal
SNB-19 CNS = system: SNB-19 CNS
A498 renal = system: A498 renal
HCT-15 colon = system: HCT-15 colon
T-47D breast = system: T-47D breast
NCI/ADR-RES ovarian = system: NCI/ADR-RES ovarian
KM12 colon = system: KM12 colon
DU-145 prostate = system: DU-145 prostate
OVCAR-4 ovarian = system: OVCAR-4 ovarian
HCT-116 colon = system: HCT-116 colon
SNB-75 CNS = system: SNB-75 CNS
OVCAR-3 ovarian = system: OVCAR-3 ovarian
OVCAR-8 ovarian = system: OVCAR-8 ovarian
MCF7 breast = system: MCF7 breast
MDA-N = system: MDA-N
OVCAR-5 ovarian = system: OVCAR-5 ovarian
LOX IMVI melanoma = system: LOX IMVI melanoma
NCI-H23 lung = system: NCI-H23 lung
K-562 leukemia = system: K-562 leukemia
SR leukemia = system: SR leukemia
UO-31 renal = system: UO-31 renal
SK-MEL-5 melanoma = system: SK-MEL-5 melanoma
IGROV1 ovarian = system: IGROV1 ovarian
786-0 renal = system: 786-0 renal
M14 melanoma = system: M14 melanoma
HL-60(TB) leukemia = system: HL-60(TB) leukemia
UACC-62 melanoma = system: UACC-62 melanoma
SF-295 CNS = system: SF-295 CNS
COLO 205 colon = system: COLO 205 colon
SK-MEL-28 melanoma = system: SK-MEL-28 melanoma
HT29 colon = system: HT29 colon
A549 NSCLC = system: A549 NSCLC
MALME-3M melanoma = system: MALME-3M melanoma

CSc1ncc2c(C#N)c3[nH]c4ccccc4n3c(=O)c2n1
TGI (BT-549 breast): > 100 µM | TGI (MDA-MB-231 breast): > 100 µM | TGI (EKVX NSCLC): > 100 µM | TGI (NCI-H226 lung): > 100 µM | TGI (MDA-MB-435): 67 µM | TGI (CCRF-CEM leukemia): 27.8 µM | TGI (HOP-92 NSCLC): > 100 µM | TGI (UACC-257 melanoma): > 100 µM | TGI (HCC-2998 colon): 42.7 µM | TGI (SK-MEL-2 melanoma): 33 µM | TGI (CAKI-1 renal): 78.4 µM | TGI (NCI-H522 lung): > 100 µM | TGI (PC-3 prostate): 48.7 µM | TGI (TK-10 renal): > 100 µM | TGI (NCI-H460 lung): 87.8 µM | TGI (RXF 393 renal): 95.5 µM | TGI (MOLT-4 leukemia): 24.6 µM | TGI (SF-539 CNS): > 100 µM | TGI (SN12C renal): > 100 µM | TGI (HOP-62 NSCLC): > 100 µM | TGI (RPMI-8226 leukemia): 12.3 µM | TGI (SW-620 colon): > 100 µM | TGI (HS 578T breast): > 100 µM | TGI (SK-OV-3 ovarian): > 100 µM | TGI (SF-268 CNS): > 100 µM | TGI (U251 CNS): > 100 µM | TGI (ACHN renal): > 100 µM | TGI (SNB-19 CNS): > 100 µM | TGI (A498 renal): 52.7 µM | TGI (HCT-15 colon): 76.4 µM | TGI (T-47D breast): > 100 µM | TGI (NCI/ADR-RES ovarian): 99.3 µM | TGI (KM12 colon): > 100 µM | TGI (DU-145 prostate): > 100 µM | TGI (OVCAR-4 ovarian): > 100 µM | TGI (HCT-116 colon): 57.5 µM | TGI (SNB-75 CNS): > 100 µM | TGI (OVCAR-3 ovarian): 45.2 µM | TGI (OVCAR-8 ovarian): 98.8 µM | TGI (MCF7 breast): > 100 µM | TGI (MDA-N): > 100 µM | TGI (OVCAR-5 ovarian): > 100 µM | TGI (LOX IMVI melanoma): > 100 µM | TGI (NCI-H23 lung): > 100 µM | TGI (K-562 leukemia): 46 µM | TGI (SR leukemia): 34.5 µM | TGI (UO-31 renal): > 100 µM | TGI (SK-MEL-5 melanoma): 25.2 µM | TGI (IGROV1 ovarian): > 100 µM | TGI (786-0 renal): > 100 µM | TGI (M14 melanoma): > 100 µM | TGI (HL-60(TB) leukemia): 25.1 µM | TGI (UACC-62 melanoma): 21.2 µM | TGI (SF-295 CNS): > 100 µM | TGI (COLO 205 colon): 35.1 µM

Cc1cc2c(nn1)CCc1c-2no[n+]1[O-]
TGI (BT-549 breast): > 100 µM | TGI (MDA-MB-231 breast): > 100 µM | TGI (EKVX NSCLC): > 100 µM | TGI (NCI-H226 lung): > 100 µM | TGI (MDA-MB-435): > 100 µM | TGI (CCRF-CEM leukemia): > 100 µM | TGI (SK-MEL-28 melanoma): > 100 µM | TGI (UACC-257 melanoma): > 100 µM | TGI (HCC-2998 colon): > 100 µM | TGI (SK-MEL-2 melanoma): > 100 µM | TGI (CAKI-1 renal): > 100 µM | TGI (NCI-H522 lung): > 100 µM | TGI (PC-3 prostate): > 100 µM | TGI (TK-10 renal): > 100 µM | TGI (NCI-H460 lung): > 100 µM | TGI (RXF 393 renal): > 100 µM | TGI (MOLT-4 leukemia): > 100 µM | TGI (SF-539 CNS): > 100 µM | TGI (SN12C renal): > 100 µM | TGI (HOP-62 NSCLC): > 100 µM | TGI (RPMI-8226 leukemia): > 100 µM | TGI (SW-620 colon): > 100 µM | TGI (HS 578T breast): > 100 µM | TGI (SK-OV-3 ovarian): > 100 µM | TGI (HT29 colon): > 100 µM | TGI (SF-268 CNS): > 100 µM | TGI (U251 CNS): > 100 µM | TGI (ACHN renal): > 100 µM | TGI (SNB-19 CNS): > 100 µM | TGI (HCT-15 colon): > 100 µM | TGI (T-47D breast): > 100 µM | TGI (NCI/ADR-RES ovarian): > 100 µM | TGI (KM12 colon): > 100 µM | TGI (A549 NSCLC): > 100 µM | TGI (OVCAR-4 ovarian): > 100 µM | TGI (HCT-116 colon): > 100 µM | TGI (SNB-75 CNS): > 100 µM | TGI (OVCAR-3 ovarian): > 100 µM | TGI (OVCAR-8 ovarian): > 100 µM | TGI (MCF7 breast): > 100 µM | TGI (MDA-N): > 100 µM | TGI (OVCAR-5 ovarian): > 100 µM | TGI (LOX IMVI melanoma): > 100 µM | TGI (NCI-H23 lung): > 100 µM | TGI (K-562 leukemia): > 100 µM | TGI (SR leukemia): > 100 µM | TGI (UO-31 renal): > 100 µM | TGI (MALME-3M melanoma): > 100 µM | TGI (SK-MEL-5 melanoma): > 100 µM | TGI (IGROV1 ovarian): > 100 µM | TGI (786-0 renal): > 100 µM | TGI (M14 melanoma): > 100 µM | TGI (UACC-62 melanoma): > 100 µM | TGI (SF-295 CNS): > 100 µM | TGI (COLO 205 colon): > 100 µM
